Experimental data taken from the supplement of paper PMC8497498.

Experiments:
Details in all cases: assay mode: Radical Cure, 8-day (treatment from day 5 post-infection)
[1] = tested on: Plasmodium vivax liver stage (primary human hepatocyte culture); assay: maximum inhibition of schizont net growth area; higher = more active
Experimental: (§1)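 Dose-response of P. vivax liver stages in primary human hepatocytes, with 8 points (10 uM-[…], v1) or 12 points in duplicate (50 uM-280 pM, v2). Read-out is high-content imaging of schizont net growth area, hypnozoite quantity and hepatic nuclei. EC50 and CC20 (20% nuclei loss) were fitted in CDD Vault from the highest-quality independent experiment; toxic-dose bell-shaped points were masked. '>' marks the highest concentration with less than 50% activity, and ND means a non-sigmoidal curve.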

[2] = tested on: primary human hepatocytes; assay: CC20 hepatic nuclei (20% reduction); higher = less toxic
Experimental: as §1

[3] = tested on: Plasmodium vivax liver stage (primary human hepatocyte culture)
Experimental: as §1

[4] = P. vivax isolate: Pv657, hepatocyte lot: BGW
[5] = P. vivax isolate: Pv756, hepatocyte lot: BGW
[6] = P. vivax isolate: Pv728, hepatocyte lot: BGW
[7] = P. vivax isolate: Pv590, hepatocyte lot: UBV
[8] = P. vivax isolate: Pv668, hepatocyte lot: BGW
[9] = P. vivax isolate: Pv836, hepatocyte lot: BGW
[10] = P. vivax isolate: Pv458, hepatocyte lot: UBV

## N#Cc1ccc(-c2cnc(N)c(-c3ccc(C(N)=O)cc3)n2)cc1
[1]; [4]
  maximum inhibition: 85.1%
[2]; [4]
  CC20 hepatic nuclei: > 50 µM
[3]; [4]
  EC50 hypnozoite quantity: > 50 µM
  EC50 schizont net growth area: 0.0012 µM

## NS(=O)(=O)c1cccc(-c2ccc3ncc(N4CCOCC4)nc3c2)c1
[1]; [5]
  maximum inhibition: 88.2%
[2]; [5]
  CC20 hepatic nuclei: > 50 µM
[3]; [5]
  EC50 hypnozoite quantity: > 50 µM
  EC50 schizont net growth area: 0.57 µM

## Nc1ncc(-c2ccc(C(F)(F)F)nc2)cc1-c1ccc(C(F)(F)F)nc1
[1]; [4]
  maximum inhibition: 87.5%
[2]; [4]
  CC20 hepatic nuclei: > 50 µM
[3]; [4]
  EC50 hypnozoite quantity: > 50 µM
  EC50 schizont net growth area: 0.19 µM

## Nc1ncc(-c2cn[nH]c2)cc1-c1nc2cc(Cl)cnc2[nH]1
[1]; [4]
  maximum inhibition: 63.7%
[2]; [4]
  CC20 hepatic nuclei: > 50 µM
[3]; [4]
  EC50 hypnozoite quantity: > 50 µM
  EC50 schizont net growth area: > 50 µM

## N=c1n(CCN2CCCCC2)c2ccccc2n1CC(O)c1cccc(Br)c1 (configuration not stated)
[1]; [6]
  maximum inhibition: 111%
[2]; [6]
  CC20 hepatic nuclei: 41.8 µM
[3]; [6]
  EC50 hypnozoite quantity: > 50 µM
  EC50 schizont net growth area: > 16.7 µM

## OCc1ccc(-c2cncc(Nc3cccc(Cl)c3)c2)cc1
[1]; [7]
  maximum inhibition: 94.1%
[2]; [7]
  CC20 hepatic nuclei: > 16.7 µM
[3]; [7]
  EC50 hypnozoite quantity: > 50 µM
  EC50 schizont net growth area: 2.54 µM

## Oc1c(C(c2ccncc2)N2CCCC2)ccc2cccnc12 (configuration not stated)
[1]; [8]
  maximum inhibition: 80.2%
[2]; [8]
  CC20 hepatic nuclei: > 50 µM
[3]; [8]
  EC50 hypnozoite quantity: > 50 µM

## c1ccn2c(Sc3ncnc4sccc34)ncc2c1
[1]; [9]
  maximum inhibition: 69.4%
[2]; [9]
  CC20 hepatic nuclei: 41.4 µM
[3]; [9]
  EC50 hypnozoite quantity: > 50 µM
  EC50 schizont net growth area: > 5.56 µM

## O=C(Nc1ccc([N+](=O)[O-])cc1)Nc1cc(OCC(F)(F)F)cc(OCC(F)(F)F)c1
[1]; [10]
  maximum inhibition: 75.3%
[2]; [10]
  CC20 hepatic nuclei: > 3.33 µM
[3]; [10]
  EC50 hypnozoite quantity: > 10 µM
  EC50 schizont net growth area: 3.33 µM

## N#CC(c1ccc(Br)cc1)c1ccc2c(C(F)(F)F)cc(C(F)(F)F)nc2n1 (configuration not stated)
[1]; [10]
  maximum inhibition: 86%
[2]; [10]
  CC20 hepatic nuclei: 5.44 µM
[3]; [10]
  EC50 hypnozoite quantity: 0.957 µM
  EC50 schizont net growth area: 1.24 µM

## CC(C)(ON=C(C(=O)NC1C(=O)N2C(C(=O)[O-])=C(C[n+]3ccccc3)CSC12)c1csc(N)n1)C(=O)O (configuration not stated) [Ceftazidime pentahydrate]
[1]; [6]
  maximum inhibition: 47.9%
[3]; [6]
  EC50 hypnozoite quantity: > 10 µM
  EC50 schizont net growth area: > 10 µM
